Each block holds one molecule with its values, some of them ahead of it.
Key:
AQP1 = target: T1, AQP1 (Homo sapiens, UniProt P29972); test: Stopped-flow osmotic water permeability of AQP1 proteoliposomes; assay type: biochemical; conditions: CHIP28 proteoliposomes
T1 construct: Human erythrocytes were obtained from blood-bank units stored up to 5 weeks; from tissue; host or cells: human erythrocytes (blood-bank units; small-scale preparations from freshly drawn whole blood)
T1 sequence (P29972 2-269 limits assumed): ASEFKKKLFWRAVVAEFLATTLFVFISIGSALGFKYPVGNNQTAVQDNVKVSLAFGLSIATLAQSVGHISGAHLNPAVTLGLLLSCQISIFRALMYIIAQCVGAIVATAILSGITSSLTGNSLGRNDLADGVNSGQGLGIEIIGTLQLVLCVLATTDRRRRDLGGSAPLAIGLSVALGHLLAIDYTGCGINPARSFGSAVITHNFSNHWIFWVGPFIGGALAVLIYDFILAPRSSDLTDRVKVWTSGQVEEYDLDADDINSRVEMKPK
Excerpt: Preparation AQP1-containing proteoliposomes. Crude Escherichia coli lipid was obtained from Avanti Polar Lipids, Inc., and neutral lipid was removed by acetone/ether wash (Ambudkar & Maloney, 1986, Methods. Enzymol. 125:558-563). The purified E. coli bulk phospholipid is composed of phosphalidylethanolamine (70%), phosphatidylglycerol (15%), and cardiolipin (15%) (Chen & Wilson, […], Proc. Natl. Acad. Sci. USA 83:2652-2656). E. coli bulk phospholipid was employed since it has previously been used for functional reconstitution of several transport proteins including the glucose transporter of RBCs (Maloney & Ambudkar, 1989, Arch. Biochem. Biophys. 269:1-10; Chen et al., 1986, Proc. Natl. Acad. Sci. USA 83:2652-2656).
Highly purified AQP1 protein was incorporated into proteoliposomes by detergent dilution; control liposomes were formed in an identical manner without AQP1 protein.
Purified AQP1 was stored overnight at 0° C. or frozen for several days at -80° C. prior to reconstitution. Reconstitution into proteoliposomes was carried out in a final volume of 1 ml containing 60-90 μg of purified AQP1 protein in chromatography buffer, 9 mg of bath-sonicated E. coli phospholipid, 1.25% (w/v) octyl glucoside, and 50 mM Tris-HCl (pH 7.5). The mixture was briefly blended on a vortex mixer and incubated for 20 minutes on ice. Proteoliposomes (or liposomes prepared without protein) were formed at room temperature by rapidly injecting the mixture into 25 ml of buffer A [50 mM MOPS, pH 7.5, 150 mM N-methyl-D-glucamine (NMDG) chloride also containing 10-15 mM carboxyfluorescein, 1 mM dithiothreitol, and 0.5 mM PMSF]. For the measurement of proton permeability, proteoliposomes and liposomes were loaded with buffer B (5 mM MOPS, pH 7.5, 150 mM KCl, 0.5 mM carboxyfluorescein, 1 mM dithiothreitol, and 0.5 mM PMSF). The suspension was incubated for 20 minutes at room temperature. Proteoliposomes or liposomes were collected by centrifugation for 1 hour at 123000×g in a Beckman Type 42.1 rotor at 4° C. The pellet was resuspended in 8 ml of buffer A or B and then centrifuged for 1 hour at 152000×g in a Beckman Type 50 Ti rotor. Proteoliposomes or liposomes were resuspended in 300 μl of buffer A or B and stored at 4° C. for 16-24 hours. Typically 50% (54±6%, n=5) of the AQP1 protein and 70% of the phospholipid were recovered in proteoliposomes. The lipid to protein ratio was in the range of 120:1 to 219:1. […] Protein and phospholipid were measured as described by Ambudkar & Maloney (J. Biol. Chem., 1986, 261:10079-10086).
(§1) Permeability measurements. Membrane permeability measurements (Pf) were measured by exposing AQP1 proteoliposomes or control liposomes to an osmotic gradient by rapid mixing with an equal volume of another solution containing buffer A plus sufficient sucrose to increase osmolality in the mixed solutions to a value 120% of that in the original solution. This was performed with a stopped-flow fluorometer (SF.17MV, Applied Photophysics, Leatherhead, U.K.) with a measured dead time of 0.7 ms. […] Extravesicular carboxyfluorescein fluorescence was completely quenched using anti-fluorescein antibody (Harris et al., 1990, Am. J. Physiol. 259:F366-F371). Within the range of osmolalities used in these experiments, the vesicles acted as perfect osmometers, and relative volume (absolute volume divided by initial volume) was linearly related to relative fluorescence (absolute fluorescence divided by initial fluorescence). […]

[1] = Stopped-flow osmotic water permeability of control liposomes; assay type: biochemical; conditions: mercurial reagent 1 mM
Experimental: Purified AQP1 was stored overnight at 0° C. or frozen for several days at -80° C. prior to reconstitution. Reconstitution into proteoliposomes was carried out in a final volume of 1 ml containing 60-90 μg of purified AQP1 protein in chromatography buffer, 9 mg of bath-sonicated E. coli phospholipid, 1.25% (w/v) octyl glucoside, and 50 mM Tris-HCl (pH 7.5). The mixture was briefly blended on a vortex mixer and incubated for 20 minutes on ice. […] Protein and phospholipid were measured as described by Ambudkar & Maloney (J. Biol. Chem., 1986, 261:10079-10086).
as §1, with “259:F366-F371).” for “259:F366-F371). Within the range of osmolalities used in these experiments, the vesicles acted as perfect osmometers, and relative volume (absolute volume divided by initial volume) was linearly related to relative fluorescence (absolute fluorescence divided by initial fluorescence).”

human RBC = conditions: cited from earlier work
CHIP28 water channel = target: T2, CHIP28 water channel (Homo sapiens, UniProt P29972); test: Urea permeability of CHIP28 proteoliposomes; assay type: biochemical; conditions: internal urea 374 mM, external urea 187 mM
T2 construct: Human erythrocytes were obtained from blood-bank units stored up to 5 weeks; from tissue; host or cells: human erythrocytes (blood-bank units; small-scale preparations from freshly drawn whole blood)
T2 sequence (P29972 2-269 limits assumed): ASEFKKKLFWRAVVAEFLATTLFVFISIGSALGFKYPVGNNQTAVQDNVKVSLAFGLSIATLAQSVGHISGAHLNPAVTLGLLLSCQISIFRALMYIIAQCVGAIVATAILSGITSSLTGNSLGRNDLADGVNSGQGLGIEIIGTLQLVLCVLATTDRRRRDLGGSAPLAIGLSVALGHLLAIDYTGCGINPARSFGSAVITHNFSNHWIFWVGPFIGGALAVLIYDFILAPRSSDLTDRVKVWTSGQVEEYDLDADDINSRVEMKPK
Excerpt: The general formula defining solute exit from a vesicle is
Jurea =d(urea)/dt=Purea (SA)ΔC (2)
where Jurea is urea flux, Purea is the permeability coefficient for urea, SA is the surface area of the vesicle, and ΔC is the difference in urea concentration between the inside and outside of the vesicle, which diminishes as the system reaches equilibrium. If
Using parameters from the single-exponential curve fit to the data and the relationship between relative volume and relative fluorescence, equation 4 was solved for Purea using MathCAD.
Exclusion of urea. To determine the selectivity of the CHIP28 water channel, CHIP28-containing liposomes were loaded with urea at a level similar to the measured Km for urea transport in RBCs and were abruptly mixed with solutions of identical osmolality containing half the urea concentration. Urea permeability was determined by monitoring the relative fluorescence of entrapped carboxyfluorescein during the urea efflux. Solutions inside and outside the vesicle were of equal osmolality but differed in the concentrations of permeant and impermeant solutes (Grossman et al., 1992, Am. J. Physiol., in press). Thus, internal urea concentration was 374 mM and external urea concentration was 187 mM with the remaining osmolality balanced by 187 mM sucrose. […]

Molecule: O=S(=O)([O-])c1cc[c]([Hg][Cl])cc1 [pCMBS, p-chloromercuribenzene sulfonate]
Pf after mercurial treatment (AQP1; 1 mM pCMBS, 25 minutes at 37° C.): 0.009±0.005 cm/s
extent of inhibition of Pf at 5 and 10 minutes (AQP1; 1 mM, 37° C.): partial
effect on the Pf of control liposomes [1]: Neither pCMBS nor HgCl2 had any effect

Molecule: O=C(CCc1ccc(O)cc1)c1c(O)cc(O)cc1O [Phloretin]
effect on urea flux (human RBC): inhibits urea flux
effect on water flux (human RBC): without altering water flux

urea permeability versus control liposomes (CHIP28 water channel): did not augment urea permeability
B1: AQP1: Mr 28,000 transmembrane water channel protein of human erythrocytes, 269 amino acids (protein)
chain: ASEFKKKLFWRAVVAEFLATTLFVFISIGSALGFKYPVGNNQTAVQDNVKVSLAFGLSIATLAQSVGHISGAHLNPAVTLGLLLSCQISIFRALMYIIAQCVGAIVATAILSGITSSLTGNSLGRNDLADGVNSGQGLGIEIIGTLQLVLCVLATTDRRRRDLGGSAPLAIGLSVALGHLLAIDYTGCGINPARSFGSAVITHNFSNHWIFWVGPFIGGALAVLIYDFILAPRSSDLTDRVKVWTSGQVEEYDLDADDINSRVEMKPK

— US5741671A, “Isolation cloning and expression of transmembrane water channel aquaporin 1(AQP1)” (The Johns Hopkins University, priority 1995, dated 1998)
